Like-named read-outs stand apart in the source and are kept apart here.
Columns and labels:
MKN45 cells = test: MKN45 cell proliferation assay (CellTiter-Glo); type: cell-based; conditions: MKN45 cell line, 3 days incubation, at least duplicate experiments, read-out: Prolif. IC50
Description: The effect of inhibitors on the proliferation of MKN45 cells was determined using the following protocol. MKN45 cells were plated in Corning 3917 96-well white tissue culture treated plates in growth medium (RPMI, 10% FCS) at a density of 5000 cells/well in a total volume of 135 μL and incubated at 37° C., 5% CO2, 95% humidity overnight. The following day, one-tenth volume of a 10× concentration of compounds was added to the wells in an 8-point dilution series. The dilution series was composed of an initial 1:5 dilution of a 10 mM stock of compound in DMSO, followed by serial 1:4 dilutions in DMSO, then a 1:20 dilution in growth medium prior to the 1:10 dilution into the cell plate. Final DMSO concentration on the cells was 0.1%, there were control wells treated with both 0.1% DMSO and no DMSO. The typical dilution range is 10 μM to 0.6 nM. Once the compound was added to the cells, plates were incubated for 3 days at 37° C., 5% CO2 at 95% humidity. On the third day, after allowing all cells and reagents to come to room temperature, 25 μL of CellTiter-Glo reagent (Promega # G7573) was added to the wells. Plates were shaken on a platform for 10 minutes prior to reading luminescence for 0.1 seconds. The signal of the control wells was taken as 100% growth and growth inhibition was expressed as percent of control. IC50 values were determined from the percent of control data using a standard four-parameter model.
(§1) The IC50 values of exemplary compounds of the present invention determined in a cell proliferation assay using the MKN45 cell line according to the procedures described herein in at least duplicate experiments are abbreviated as follows and are shown in Table 2: A, IC50≦0.1 μM; B, 0.1 μM<IC50≦1 μM; C, 1 μM<IC50≦10 μM; D, IC50>10 μM; ND, not determined. The Example # of Table 2 corresponds to the compound example number as illustrated in the Examples section.

phosphorylated c-MET = target: T1, phosphorylated c-MET (Homo sapiens, UniProt P08581); test: c-MET cell mechanistic assay (phosphorylated c-MET in MKN45 cells); type: cell-based; conditions: MKN45 cell line, four hours incubation, phosphorylated c-MET levels, at least duplicate experiments; read-out: Met mech IC50
T1 construct: endogenous in cells; host or cells: MKN45
Description: The cellular activity of the compounds of the present invention may be determined by the following procedure. MKN45 cells were plated in Falcon 3072 96-well plates in growth media (RPMI, 10% FBS, 1% L-glutamine) at a density of 5000 cells/well and incubated at 37° C., 5% CO2 overnight. The following day, one-tenth volume of a 10× concentration of compounds was added to the wells in a 6-point dilution series. The dilutions series was composed of an initial 1:5 dilution in DMSO, followed by a 1:10 dilution in growth media, for a final DMSO concentration on cells of 0.5%. Control wells were treated with 0.5% DMSO. The typical range of dilution was 10 μM to 3 nM. Once compound was added to the cells, plates were incubated for four hours at 37° C., 5% CO2. Plates were then washed in PBS, and lysed in triton-based lysis buffer. Lysates were transferred to a precoated capture plate made by Biosource (Cat # KH00281). The phosphorylated c-MET levels were measured by incubating with a rabbit polyclonal antibody against phosphorylated c-MET ([pYpYpY1230/1234/1235]) followed by an anti-rabbit antibody conjugated to HRP. Signal was measured on a Wallac Victor plate reader at 450 nm. The DMSO signal of the control wells was defined as 100% and the percent of inhibition of phosphorylated c-Met was expressed as percent of control. IC50 values were determined from the percent of control data using a standard four-parameter model.
as §1, with “in a c-MET cell mechanistic” for “in a cell proliferation”, “c-MET cell mechanistic assay using” for “a cell proliferation assay using”, “in Table 3: A, IC50≦0.1” for “in Table 2: A, IC50≦0.1”, “of Table 3 corresponds to” for “of Table 2 corresponds to”

T1 sequence (P08581 25-1390): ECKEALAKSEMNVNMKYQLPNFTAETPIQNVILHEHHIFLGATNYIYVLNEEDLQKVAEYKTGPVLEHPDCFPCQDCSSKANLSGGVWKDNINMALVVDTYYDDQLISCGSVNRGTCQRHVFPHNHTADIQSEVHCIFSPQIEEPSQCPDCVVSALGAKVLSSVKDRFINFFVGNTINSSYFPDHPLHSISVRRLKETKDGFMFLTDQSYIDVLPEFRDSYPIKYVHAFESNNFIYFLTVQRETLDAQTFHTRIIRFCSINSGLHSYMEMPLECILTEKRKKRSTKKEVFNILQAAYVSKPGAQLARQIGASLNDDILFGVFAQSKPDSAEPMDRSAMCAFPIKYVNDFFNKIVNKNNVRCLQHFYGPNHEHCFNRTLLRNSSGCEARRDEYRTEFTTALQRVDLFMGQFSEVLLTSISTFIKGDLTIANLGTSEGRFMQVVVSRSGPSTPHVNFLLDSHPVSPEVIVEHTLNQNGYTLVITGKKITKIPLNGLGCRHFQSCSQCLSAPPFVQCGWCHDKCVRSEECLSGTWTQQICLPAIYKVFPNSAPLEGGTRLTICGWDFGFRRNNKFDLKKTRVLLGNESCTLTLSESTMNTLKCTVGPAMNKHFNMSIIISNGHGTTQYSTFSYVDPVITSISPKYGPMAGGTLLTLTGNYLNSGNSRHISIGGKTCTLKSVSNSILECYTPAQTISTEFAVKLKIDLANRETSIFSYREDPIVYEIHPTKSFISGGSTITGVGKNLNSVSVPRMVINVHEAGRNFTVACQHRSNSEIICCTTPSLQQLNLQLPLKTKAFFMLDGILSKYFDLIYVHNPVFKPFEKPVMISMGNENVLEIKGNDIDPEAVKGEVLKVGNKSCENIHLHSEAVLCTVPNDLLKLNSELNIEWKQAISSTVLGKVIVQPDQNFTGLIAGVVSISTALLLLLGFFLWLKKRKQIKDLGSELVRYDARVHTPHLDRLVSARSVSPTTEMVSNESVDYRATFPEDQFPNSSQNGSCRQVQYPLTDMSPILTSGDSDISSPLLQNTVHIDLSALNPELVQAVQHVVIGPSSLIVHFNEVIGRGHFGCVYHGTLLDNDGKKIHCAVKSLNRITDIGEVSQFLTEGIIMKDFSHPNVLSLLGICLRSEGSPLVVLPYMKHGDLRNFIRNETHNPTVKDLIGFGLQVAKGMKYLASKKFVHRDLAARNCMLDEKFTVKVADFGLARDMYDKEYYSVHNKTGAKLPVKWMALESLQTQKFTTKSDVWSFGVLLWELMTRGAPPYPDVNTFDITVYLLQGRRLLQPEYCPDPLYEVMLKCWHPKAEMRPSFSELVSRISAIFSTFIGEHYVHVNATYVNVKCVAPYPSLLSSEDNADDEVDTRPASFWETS

Compound	IC50 (MKN45 cells; Homo sapiens, MKN-45, 72 h) [nM]	IC50 (phosphorylated c-MET) [nM]	IC50 (MKN45 cells) [nM]
CNS(=O)(=O)c1ccc(-c2cnc3[nH]cc(C(C)c4c(Cl)ccc(F)c4Cl)c3c2)cc1 (centres unmarked) [Example 23, 4-{3-[1-(2,6-Dichloro-3-fluorophenyl)ethyl]-1H-pyrrolo[2,3-b]pyridin-5-yl}-N-methylbenzenesulfonamide]	1000 to 10000	100 to 1000	
CC(c1c(Cl)ccc(F)c1Cl)c1c[nH]c2ncc(C3=CCN(C(=O)[C@H](C)O)CC3)cc12 (stereo partly drawn) [Example 41, (S)-1-(4-{3-[1-(2,6-Dichloro-3-fluorophenyl)ethyl]-1H-pyrrolo[2,3-b]-pyridin-5-yl}-3,6-dihydro-2H-pyridin-1-yl)-2-hydroxypropan-1-one]	100 to 1000	≤ 100	
CC(c1c(Cl)ccc(F)c1Cl)c1c[nH]c2ncc(-c3ccc(N)cc3)cc12 (centres unmarked) [Example 18, 4-{3-[1-(2,6-Dichloro-3-fluorophenyl)ethyl]-1H-pyrrolo[2,3-b]pyridin-5-yl}phenylamine]	100 to 1000	100 to 1000	
CC(c1c(Cl)ccc(F)c1Cl)c1c[nH]c2ncc(C3=CCN(C(=O)[C@@H](C)O)CC3)cc12 (stereo partly drawn) [Example 40, (R)-1-(4-{3-[1-(2,6-Dichloro-3-fluorophenyl)ethyl]-1H-pyrrolo[2,3-b]-pyridin-5-yl}-3,6-dihydro-2H-pyridin-1-yl)-2-hydroxypropan-1-one]	100 to 1000	≤ 100	
CC(c1c(Cl)ccc(F)c1Cl)c1c[nH]c2ncc(C3=CCN(C=O)CC3)cc12 (centres unmarked) [Example 38, 4-{3-[1-(2,6-Dichloro-3-fluorophenyl)ethyl]-1H-pyrrolo[2,3-b]pyridin-5-yl}-3,6-dihydro-2H-pyridine-1-carbaldehyde]	100 to 1000	100 to 1000	
CC(c1c(Cl)ccc(F)c1Cl)c1c[nH]c2ncc(-c3cnn(C)c3)cc12 (centres unmarked) [Example 27, 3-[1-(2,6-Dichloro-3-fluorophenyl)-ethyl]-5-(1-methyl-1H-pyrazol-4-yl)-1H-pyrrolo[2,3-b]pyridine]	100 to 1000	≤ 100	
2-(4-{3-[(S)-1-(2,6-Dichloro-3-fluorophenyl)ethyl]-1H-pyrrolo[2,3-b]-pyridin-5-yl}-pyrazol-1-yl)-acetamide [Example 75]		≤ 100	100 to 1000
CC(c1c(Cl)ccc(F)c1Cl)c1c[nH]c2ncc(-c3cnn(CCN4CCOCC4)c3)cc12 (centres unmarked) [Example 31, 3-[1-(2,6-Dichloro-3-fluorophenyl)ethyl]-5-[1-(2-morpholin-4-ylethyl)-1H-pyrazol-4-yl]-1H-pyrrolo[2,3-b]pyridine]	≤ 100	≤ 100	
CC(c1c(Cl)ccc(F)c1Cl)c1c[nH]c2ncc(-c3ccc(S(=O)(=O)N(C)C)cc3)cc12 (centres unmarked) [Example 22, 4-{3-[1-(2,6-Dichloro-3-fluorophenyl)ethyl]-1H-pyrrolo[2,3-b]pyridin-5-yl}-N,N-dimethylbenzenesulfonamide]	1000 to 10000	1000 to 10000	
CC(c1c(Cl)ccc(F)c1Cl)c1c[nH]c2ncc(-c3cn[nH]c3)cc12 (centres unmarked) [Example 26, 3-[1-(2,6-Dichloro-3-fluorophenyl)-ethyl]-5-(1H-pyrazol-4-yl)-1H-pyrrolo[2,3-b]pyridine]	100 to 1000	100 to 1000	
CC(c1c(Cl)ccc(F)c1Cl)c1c[nH]c2ncc(C3=CCN(C(=O)N(C)C)CC3)cc12 (centres unmarked) [Example 36, 4-{3-[1-(2,6-Dichloro-3-fluorophenyl)-ethyl]-1H-pyrrolo[2,3-b]pyridin-5-yl}-3,6-dihydro-2H-pyridine-1-carboxylic acid dimethylamide]	100 to 1000	100 to 1000	
CC(c1c(Cl)ccc(F)c1Cl)c1c[nH]c2ncc(C3=CCN(C(N)=O)CC3)cc12 (centres unmarked) [Example 33, 4-{3-[1-(2,6-Dichloro-3-fluorophenyl)ethyl]-1H-pyrrolo[2,3-b]pyridin-5-yl}-3,6-dihydro-2H-pyridine-1-carboxamide]	100 to 1000	≤ 100	
CC(c1c(Cl)ccc(F)c1Cl)c1c[nH]c2ncc(C3=CCN(C(=O)C(C)(C)O)CC3)cc12 (centres unmarked) [Example 42, 1-(4-{3-[1-(2,6-Dichloro-3-fluorophenyl)ethyl]-1H-pyrrolo[2,3-b]pyridin-5-yl}-3,6-dihydro-2H-pyridin-1-yl)-2-hydroxy-2-methylpropan-1-one]	100 to 1000	100 to 1000	

Results, then the compound that gave them:

IC50 (MKN45 cells; Homo sapiens, MKN-45, 72 h) [nM]	IC50 (phosphorylated c-MET) [nM]	IC50 (MKN45 cells) [nM]	Compound
≤ 100	≤ 100		CC(=O)N1CCC(n2cc(-c3cnc4[nH]cc(C(C)c5c(Cl)ccc(F)c5Cl)c4c3)cn2)CC1 (centres unmarked) [Example 48, 1-[4-(4-{3-[1-(2,6-Dichloro-3-fluorophenyl)ethyl]-1H-pyrrolo[2,3-b]pyridin-5-yl]-pyrazol-1-yl}-piperidin-1-yl)-ethanone]
≤ 100	≤ 100		CC(c1c(Cl)ccc(F)c1Cl)c1c[nH]c2ncc(C3=CCN(C(=O)CO)CC3)cc12 (centres unmarked) [Example 43, 1-(4-{3-[1-(2,6-Dichloro-3-fluorophenyl)ethyl]-1H-pyrrolo[2,3-b]pyridin-5-yl}-3,6-dihydro-2H-pyridin-1-yl)-2-hydroxyethanone]
≤ 100	≤ 100		C[C@H](c1c(Cl)ccc(F)c1Cl)c1c[nH]c2ncc(-c3cnn(CC(=O)N4CCOCC4)c3)cc12 [Example 78, 2-(4-{3-[(S)-1-(2,6-Dichloro-3-fluorophenyl)ethyl]-1H-pyrrolo[2,3-b]pyridin-5-yl}-pyrazol-1-yl)-1-morpholin-4-ylethanone]
100 to 1000	≤ 100		CC(c1c(Cl)ccc(F)c1Cl)c1c[nH]c2ncc(-c3cnn(C4CN(C(N)=O)C4)c3)cc12 (centres unmarked) [Example 56, 3-(4-{3-[1-(2,6-Dichloro-3-fluorophenyl)ethyl]-1H-pyrrolo[2,3-b]pyridin-5-yl}-pyrazol-1-yl)-azetidine-1-carboxamide]
100 to 1000	100 to 1000		CC(c1c(Cl)ccc(F)c1Cl)c1c[nH]c2ncc(C3=CCN(S(N)(=O)=O)CC3)cc12 (centres unmarked) [Example 46, 4-{3-[1-(2,6-Dichloro-3-fluorophenyl)ethyl]-1H-pyrrolo[2,3-b]pyridin-5-yl}-3,6-dihydro-2H-pyridine-1-sulfonic acid amide]
≤ 100	≤ 100		C[C@H](c1c(Cl)ccc(F)c1Cl)c1c[nH]c2ncc(-c3cnn(C4CCNCC4)c3)cc12 [Example 80, 3-[(S)-1-(2,6-Dichloro-3-fluorophenyl)ethyl]-5-(1-piperidin-4-yl-1H-pyrazol-4-yl)-1H-pyrrolo[2,3-b]pyridine]
100 to 1000	100 to 1000		C[C@@H](c1c(Cl)ccc(F)c1Cl)c1c[nH]c2ncc(-c3cnn(C4CCNCC4)c3)cc12 [Example 81, 3-[(R)-1-(2,6-Dichloro-3-fluorophenyl)ethyl]-5-(1-piperidin-4-yl-1H-pyrazol-4-yl)-1H-pyrrolo[2,3-b]pyridine]
≤ 100	≤ 100		CC(c1c(Cl)ccc(F)c1Cl)c1c[nH]c2ncc(C3=CCN(C(=O)C(C)(C)N)CC3)cc12 (centres unmarked) [Example 45, 2-Amino-1-(4-{3-[1-(2,6-dichloro-3-fluorophenyl)ethyl]-1H-pyrrolo[2,3-b]pyridin-5-yl}-3,6-dihydro-2H-pyridin-1-yl)-2-methylpropan-1-one]
100 to 1000	100 to 1000		CC(c1c(Cl)ccc(F)c1Cl)c1c[nH]c2ncc(-c3cnn(C4CN(C(=O)N(C)C)C4)c3)cc12 (centres unmarked) [Example 59, 3-(4-{3-[1-(2,6-Dichloro-3-fluorophenyl)ethyl]-1H-pyrrolo[2,3-b]pyridin-5-yl}-pyrazol-1-yl)-azetidine-1-carboxylic acid dimethylamide]
